Data on one molecule can be found in ChEMBL document CHEMBL4145523, “New selective cyclooxygenase-2 inhibitors from cyclocoumarol: Synthesis, characterization, biological evaluation and molecular modeling” (Eur J Med Chem, 2018).

Activity calls are given as the source filed them. No cut-off for these calls is given here.

Data set [1] relates to RAW264.7. Kind of data set: Down regulation of COX-1 expression in mouse RAW264.7 cells at 10 uM after 24 hrs by Western blot method. Format: ADME, cell-based. The conditions noted are these: raw264.7, 24 h. A general note: Immunoblotting shows a protein as a band on a membrane.
Data set [2] deals with T1, Prostaglandin G/H synthase 2 (Mus musculus) (UniProt Q05769).
T1 sequence (whole entry): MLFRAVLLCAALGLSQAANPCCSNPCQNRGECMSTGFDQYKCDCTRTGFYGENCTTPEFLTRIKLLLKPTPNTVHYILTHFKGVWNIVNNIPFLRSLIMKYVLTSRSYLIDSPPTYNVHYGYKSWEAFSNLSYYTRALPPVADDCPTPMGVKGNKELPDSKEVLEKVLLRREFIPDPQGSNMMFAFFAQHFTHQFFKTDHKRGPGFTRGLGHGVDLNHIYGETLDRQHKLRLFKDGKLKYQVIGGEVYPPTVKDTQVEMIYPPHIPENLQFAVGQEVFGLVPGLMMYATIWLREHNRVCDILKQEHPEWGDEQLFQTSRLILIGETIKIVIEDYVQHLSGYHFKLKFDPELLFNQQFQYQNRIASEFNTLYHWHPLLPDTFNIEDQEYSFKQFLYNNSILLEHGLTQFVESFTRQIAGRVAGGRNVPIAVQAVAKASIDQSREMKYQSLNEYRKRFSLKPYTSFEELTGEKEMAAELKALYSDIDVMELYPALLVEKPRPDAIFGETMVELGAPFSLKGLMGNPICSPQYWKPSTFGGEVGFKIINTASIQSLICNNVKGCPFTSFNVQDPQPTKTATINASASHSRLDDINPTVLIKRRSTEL
Kind of data set: Inhibition of COX-2 in mouse RAW264.7 cells assessed as reduction in PGE2 production preincubated for 2 hrs followed by LPS stimulation measured after 24 hrs by enzyme immunoassay. The format is cell-based.

Data set [3] relates to RAW264.7. Briefly: Antiinflammatory activity against mouse RAW264.7 cells assessed as inhibition of LPS induced cox-2 expression at 5 to 20 uM preincubated for 2 hrs followed by LPS challenge measured after 24 hrs by Western blot method. The format is functional, cell-based.
The target of data set [4] is T2, Prostaglandin G/H synthase 1 (Mus musculus, UniProt P22437).
T2 sequence (P22437 whole entry): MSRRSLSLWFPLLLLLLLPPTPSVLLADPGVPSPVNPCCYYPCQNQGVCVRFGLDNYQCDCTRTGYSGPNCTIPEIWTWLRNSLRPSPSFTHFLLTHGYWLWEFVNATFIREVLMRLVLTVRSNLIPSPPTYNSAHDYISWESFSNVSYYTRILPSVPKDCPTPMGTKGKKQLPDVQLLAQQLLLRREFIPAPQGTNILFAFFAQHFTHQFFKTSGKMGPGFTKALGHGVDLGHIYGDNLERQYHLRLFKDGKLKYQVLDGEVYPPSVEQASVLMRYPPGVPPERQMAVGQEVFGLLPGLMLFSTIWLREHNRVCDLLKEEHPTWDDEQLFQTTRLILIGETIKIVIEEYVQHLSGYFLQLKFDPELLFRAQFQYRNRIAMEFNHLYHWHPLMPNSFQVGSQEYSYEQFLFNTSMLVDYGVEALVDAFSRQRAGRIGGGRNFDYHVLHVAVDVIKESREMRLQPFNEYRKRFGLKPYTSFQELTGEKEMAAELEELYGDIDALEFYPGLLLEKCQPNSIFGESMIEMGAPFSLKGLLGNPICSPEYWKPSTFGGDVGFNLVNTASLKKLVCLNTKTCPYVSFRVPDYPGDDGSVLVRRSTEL
Kind of data set: Inhibition of COX-1 in mouse RAW264.7 cells assessed as reduction in PGE2 production at 10 uM after 24 hrs by enzyme immunoassay. Format: cell-based. The conditions noted are these: raw264.7, 24 h.

In the case of `COc1ccc(C2CC(C)(OC)Oc3c2c(=O)oc2ccccc32)cc1` (single isomer, unassigned), the Activity result in the data set on RAW264.7 [1] is “Non-Toxic”. Also, the inhibition result in data set [2] is “Dose-dependent effect”. For the same molecule, the inhibition entry with RAW264.7 [3] was “inactive”. Besides, in data set [4], the “inhibition (INH)” value is reported as “Not Active”.
